# Reference: article PMC6259458, “Investigating the Spectrum of Biological Activity of Ring-Substituted Salicylanilides and Carbamoylphenylcarbamates” (Molecules, 2010)
# Legend:
# Assay in all cases: In vitro anti-mycobacterial evaluation, alamarBlue
# M. kansasii CIT11/06 = conditions: 5 days, NA = no significant activity
# Protocol: (§1) Clinical isolates of Mycobacterium avium complex CIT19/06 (MAC), M. avium paratuberculosis ATCC19698 (MAP), and M. kansasii CIT11/06 (MK) were grown in Middlebrook broth (MB), supplemented with Oleic, Albumin, Dextrose, Catalase supplement (OADC, Becton Dickinson, UK). […] At log phase growth, culture (10 mL) was centrifuged at 15,000 rpm/20 min using a bench top centrifuge (Model CR 4-12 Jouan Inc., UK). Following removal of the supernatant, the pellet was washed in fresh Middlebrook 7H9GC broth and re-suspended in fresh supplemented MB (10 mL). The turbidity was adjusted to match McFarland standard No. 1 (3 × 10^8 cfu) with MB broth. A further 1:20 dilution of the culture was then performed in MB broth.
# (§2) The anti-microbial susceptibility of all three mycobacterial species was investigated in a 96-well plate format. […] Each evaluated compound (100 µL) was incubated with each of the mycobacterial species (100 µL). […] Following incubation, a 10% addition of alamarBlue (AbD Serotec) was mixed into each well and readings at 570 nm and 600 nm were taken, initially for background subtraction and subsequently after 24 h re-incubation. […] For non-interfering compounds, a blue colour in the well was interpreted as an absence of growth and a pink colour was scored as growth. […]
# [1] = system: M. avium paratuberculosis ATCC19698; assay type: cell-based; conditions: 7 days, NA = no significant activity
# [2] = system: Mycobacterium avium complex CIT19/06; conditions: 5 days, NA = no significant activity
# Protocol: as §1, §2
compound,measurement,setting,value
"NNC(=O)c1ccncc1 [INH, Isoniazid, reference compound]",MIC/IC90 MK,M. kansasii CIT11/06,<10 µg/mL
same,MIC/IC90 MAP,[1],>250 µg/mL
same,MIC/IC90 MAC,[2],<10 µg/mL
